Measured values reported in PubChem BioAssay (NCI).
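Cultured in 96-well plates, cells were exposed to test compound for 48 hours across five concentrations. TGI is the concentration that stops growth completely.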

What was measured:
Assay in all cases: NCI tumour cell line growth inhibition, 48 h
[1] = system: LXFL 529 NSCLC
[2] = system: M19-MEL melanoma
[3] = system: HOP-18 NSCLC
[4] = system: DMS 273 small cell lung
[5] = system: P388 leukemia
[6] = system: SN12K1 renal
[7] = system: P388/ADR leukemia

Row | SMILES | TGI [1] [µM] | TGI [2] [µM] | TGI [3] [µM] | TGI [4] [µM] | TGI [5] [µM] | TGI [6] [µM] | TGI [7] [µM]
1 | CC(C)C(=O)CC(c1ccc(Cl)cc1)N1N=C(C(C)C)CC1c1ccc(Cl)cc1 (stereo not given) | > 100 | > 55.6 |  |  |  |  | 
2 | CCCn1cc2c(SC)nc(SC)nc2n1 |  |  | > 100 | > 100 |  |  | 
3 | Cc1[nH]c(=O)[nH]c(=O)c1/C=C/C(=O)NC(CO)CS(=O)Cc1ccccc1 (stereo not given) |  | > 300 | > 300 | > 300 | > 300 | > 300 | > 300
